Reference: the supplement of paper PMC10307832

Experiments:
[1] = compound: Cc1cnc(CNC(=O)c2c(=O)c3ccc(N4CCCN(C)CC4)nc3n3c2sc2ccccc23)cn1 [CX-5461] + CCNC(=O)c1noc(-c2cc(C(C)C)c(O)cc2O)c1-c1ccc(CN2CCOCC2)cc1 [Luminespib] (partner 0.01 µM); assay: relative viability (nuclei count vs DMSO), 5 days (fraction); higher = more cells survive
Procedure, shortened: (§1)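 Lung cancer cell lines, seeded in 1536-well plates, were treated the following day by pin tool with a single drug or with five library-drug doses (not always all listed) in √10 steps on top of a fixed anchor-drug dose. Cells were fixed and nuclei stained in one step after 5 days, and nuclei were counted. Relative viability is the nuclei count for treated wells divided by that for vehicle wells, reported as medians of duplicate plates.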

[2] = compound: Cc1cnc(CNC(=O)c2c(=O)c3ccc(N4CCCN(C)CC4)nc3n3c2sc2ccccc23)cn1 [CX-5461] + Cc1nc(Nc2ncc(C(=O)Nc3c(C)cccc3Cl)s2)cc(N2CCN(CCO)CC2)n1 [Dasatinib] (partner 0.075 µM); assay: as above
Procedure, shortened: as §1

Cell Line	relative viability ([1]; first compound 0.01 µM)	relative viability ([1]; first compound 0.03162 µM)	relative viability ([1]; first compound 0.1 µM)	relative viability ([1]; first compound 0.3162 µM)	relative viability ([1]; first compound 1 µM)	relative viability ([2]; first compound 0.01 µM)	relative viability ([2]; first compound 0.03162 µM)	relative viability ([2]; first compound 0.1 µM)	relative viability ([2]; first compound 1 µM)	relative viability ([2]; first compound 0.3162 µM)
NCI-H522	1.49	1.22	1.98	1.05	1.08	0.886	1.04	0.916	0.742	
HCC-15	0.236	0.331	0.305	0.359	0.216	0.673	0.666	0.655	0.229	0.617
A-427	0.965	0.899	0.953		0.721	0.811	0.8	0.758	0.539	
NCI-H2228	0.148	0.147	0.196	0.172	0.101	0.399	0.465	0.28	0.0755	0.309
NCI-H1734	0.182	0.148	0.193	0.173	0.157	0.472	0.543	0.471	0.25	0.405
SK-LU-1	0.22	0.185	0.204		0.166	0.178	0.159	0.142	0.102	
PC-14	0.14	0.163	0.222	0.204	0.124	0.312	0.251	0.295	0.0972	0.272
NCI-H1915	0.857	0.852	0.813	0.923	0.783	0.292	0.358	0.301	0.297	0.299
NCI-H1666	0.938	0.93	0.922	1.01	0.775	0.786	0.802	0.597	0.591	0.757
HCC-366						0.678	0.597	0.627	0.106	0.68
LK-2	0.173	0.214	0.199		0.212	0.258	0.229	0.251	0.195	
NCI-H661	0.928	0.879	0.792	0.575	0.433	1.06	0.863	0.9	0.4	
PC-3 [JPC-3]	0.726	0.708	0.62	0.635	0.721	0.967	1.09	1.01	0.972	1.04
NCI-H1623	0.528	0.542	0.515	0.536	0.51	0.524	0.473	0.521	0.534	0.568
LC-2-ad	0.981	1.04	0.869	0.925	0.424	0.59	0.713	0.546	0.27	0.406
CAL-12T	0.302	0.534	0.31	1.51	0.24	0.521	0.356	0.329	0.205	0.39
RERF-LC-KJ	1.28	1.24	1.19	1.27	0.687	0.913	0.94	0.809	0.522	0.924
NCI-H1650	0.181	0.161	0.211	0.215	0.193	0.355	0.326	0.195	0.14	0.305
BEN	0.326	0.391	0.289	0.337	0.181	0.322	0.271	0.313	0.279	0.377
EMC-BAC-2	1.14	1.27	1.15	1.11	0.756	0.335	0.319	0.296	0.155	0.282
LU99A	0.187	0.218	0.235	0.241	0.242	0.759	0.499	0.439	0.172	0.341
ABC-1	0.531	0.691	0.521	0.402	0.303	0.697	0.582	0.45	0.449	0.384
NCI-H358	0.317	0.42	0.327	0.358	0.371	0.146	0.148	0.176	0.12	0.0999

Cell Line	relative viability ([1]; first compound 0.01 µM)	relative viability ([1]; first compound 0.03162 µM)	relative viability ([1]; first compound 0.1 µM)	relative viability ([1]; first compound 0.3162 µM)	relative viability ([1]; first compound 1 µM)	relative viability ([2]; first compound 0.01 µM)	relative viability ([2]; first compound 0.03162 µM)	relative viability ([2]; first compound 0.1 µM)	relative viability ([2]; first compound 1 µM)	relative viability ([2]; first compound 0.3162 µM)
NCI-H2347	0.563	0.413	0.753	0.327	0.341	0.336	0.295	0.4	0.328	0.333
NCI-H1993	0.869	0.935	0.861	0.724	0.907	0.657	0.588	0.499	0.473	0.621
NCI-H322M	1.08	0.799	0.798	0.469	0.402	0.249	0.243	0.267	0.267	0.219
NCI-H838	0.299	0.301	0.36		0.179	0.283	0.292	0.38	0.243	0.241
HARA	0.711	1.15	1.09		0.392	0.308	0.246	0.213	0.213	
NCI-H2087	0.184	0.166	0.15	0.158	0.178	0.938	0.903	0.736	0.554	0.793
NCI-H1437	1.15	1.2		1.08	0.966	0.434	0.373	0.431	0.368	0.32
NCI-H2342	0.778	0.653	0.657	0.761	0.693	0.311	0.317	0.308	0.285	0.335
NCI-H1792	0.57	0.48	0.432	0.458	0.497	0.738	0.893	0.825	0.613	0.95
ChaGo-K-1	0.595	0.626	0.548	0.668	0.462	0.57	0.57	0.575	0.253	0.469
NCI-H650	0.767	0.743	0.799	0.711	0.364	0.423	0.431	0.448	0.389	0.482
COR-L23	0.641	0.597	0.512	0.547	0.333	0.477	0.495	0.438	0.226	0.46
COR-L 105	0.839	0.703	0.907	0.667	0.699	0.3	0.356	0.299	0.255	0.325
NCI-H1395	0.669	0.596	0.677	0.667	0.644	0.402	0.414	0.418	0.367	0.39
201T	1.05	1.04	1.05	1.06	1.11	0.652	0.555	0.537	0.477	0.542
HCC-44	1.11	1.26	0.714	0.834	0.208					
NCI-H596	1.07	0.912	1.17	1.12	1.12	0.613	0.639	0.596	0.473	0.623
H3255	0.896	0.859	0.932	0.811	0.941	0.482	0.295	0.34	0.304	0.334
NCI-H647	0.192	0.163	0.169	0.146	0.108	0.18	0.175	0.161	0.0641	0.162
NCI-H2023	0.675	0.318		0.314	0.0698	0.667	0.603	0.245	0.0768	0.497
NCI-H23	0.212	0.234	0.197	0.234	0.214	0.75	0.892	0.834	0.5	1.03
NCI-H2170	0.636	0.54	1.02	0.771	0.554	0.602	0.552	0.701	0.436	0.619
NCI-H1944	0.854	0.711	0.864	0.51	0.672	0.208	0.204	0.168	0.11	0.14

Cell Line	relative viability ([1]; first compound 0.01 µM)	relative viability ([1]; first compound 0.03162 µM)	relative viability ([1]; first compound 0.1 µM)	relative viability ([1]; first compound 0.3162 µM)	relative viability ([1]; first compound 1 µM)	relative viability ([2]; first compound 0.01 µM)	relative viability ([2]; first compound 0.03162 µM)	relative viability ([2]; first compound 0.1 µM)	relative viability ([2]; first compound 1 µM)	relative viability ([2]; first compound 0.3162 µM)
NCI-H520	0.195	0.194	0.202	0.262	0.218	0.164	0.165	0.199	0.203	0.166
NCI-H460	0.0291	0.0347		0.041	0.0205	0.554	0.435	0.263	0.0464	0.516
EKVX	0.868	0.91	0.728	0.843	0.689	0.55	0.522	0.481	0.477	0.554
SK-MES-1	0.801	0.975	0.695	0.735	0.304	0.339	0.387	0.397	0.198	0.344
EPLC-272H	0.324	0.192	0.196		0.356	0.327	0.364	0.387	0.412	
NCI-H1563	0.47	0.595	0.438	0.565	0.498	0.461	0.426	0.464	0.444	0.444
NCI-H1793	0.199	0.249	0.131		0.194	0.347	0.409	0.368	0.343	
NCI-H2126	0.883	0.848	0.908	0.847	0.411	0.54	0.568	0.562	0.413	0.672
LXF-289	0.627	0.798	0.823	0.732	0.662	0.257	0.204	0.202	0.154	0.103
NCI-H2009	1.08	1.02	0.887	0.985	0.508	0.341	0.324	0.305	0.262	0.346
SW 900	0.171	0.162	0.19	0.18	0.176	0.45	0.541	0.701	0.211	0.4
NCI-H2405	0.664	0.665	0.862	0.743	0.515	0.224	0.204	0.197	0.193	0.205
NCI-H1755	0.383	0.357	0.482	0.402	0.512	0.412	0.476	0.461	0.34	0.422
HCC-78						0.431	0.381	0.406	0.322	0.421
LOU-NH91	0.411	0.354	0.303		0.323	0.677	0.511	0.602	0.532	
NCI-H3122	0.0935	0.0696	0.096	0.0801	0.0781	0.821	0.942	0.828	0.346	0.824
HCC-827	0.875	0.69	0.921	0.588	0.791	0.346	0.277	0.349	0.298	0.35
SW 1573	0.295	0.163	0.164	0.187	0.0965	0.528	0.396	0.302	0.17	0.502
NCI-H1975	0.353	0.249	0.43	0.191	0.202	0.367	0.388	0.302	0.2	0.441
NCI-H1651	0.827	0.682		0.603	0.171	0.378	0.254		0.112	0.178
NCI-H441	0.322	0.421	0.323	0.444	0.239	0.593	0.486	0.747	0.364	0.419
LCLC-103H	1.03	1.08	1.01	1.14	0.975	0.527	0.583	0.384	0.53	0.609
LCLC-97TM1	0.865	0.84	0.889		0.703	0.755	0.873	0.791	0.701	
